# Laboratory results as given in patent US20070249590A1, “Substituted indolo[2,3-a]pyrrolo[3,4-c]carbazole compounds useful in treating kinase disorders” (priority 2005, published 2007).
# Target: T1, JAK3 (JH1 and JH2 domain) (Homo sapiens, UniProt P52333)
# T1 sequence (P52333 521-1111 limits assumed): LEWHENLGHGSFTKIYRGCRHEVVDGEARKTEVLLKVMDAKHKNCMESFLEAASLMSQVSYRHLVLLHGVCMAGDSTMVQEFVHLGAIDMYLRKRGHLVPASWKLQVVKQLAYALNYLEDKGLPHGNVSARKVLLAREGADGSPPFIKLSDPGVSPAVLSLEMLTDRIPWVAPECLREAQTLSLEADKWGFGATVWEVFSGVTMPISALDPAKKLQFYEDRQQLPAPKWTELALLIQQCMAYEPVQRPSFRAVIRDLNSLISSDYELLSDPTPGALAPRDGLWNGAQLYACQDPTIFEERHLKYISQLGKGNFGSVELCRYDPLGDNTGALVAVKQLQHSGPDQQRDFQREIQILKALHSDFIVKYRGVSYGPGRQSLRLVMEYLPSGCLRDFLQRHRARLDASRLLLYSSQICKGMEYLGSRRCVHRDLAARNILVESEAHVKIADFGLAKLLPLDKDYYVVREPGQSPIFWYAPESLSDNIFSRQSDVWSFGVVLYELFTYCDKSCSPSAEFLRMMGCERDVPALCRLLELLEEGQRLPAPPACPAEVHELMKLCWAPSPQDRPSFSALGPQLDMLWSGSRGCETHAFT
# Assay: JAK3 Kinase Assay (ELISA of peptide substrate phosphorylation)
# Format: biochemical
# Settings: purified JAK3 enzyme, 10 μM ATP, biotinylated peptide substrate, 1 hour at room temperature
# How it was run: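 Sf21-baculovirus-expressed JAK3 (JH1+JH2), glutathione-bead purified, with biotinylated peptide substrate (in buffer containing 10 μM ATP) in HEPES pH 7.5/MgCl2/DTT, 1 h RT. Product was captured on Neutravidin, detected with HRP anti-phosphotyrosine (PY99)/TMB, OD 450/650 nm. Triplicate 16-point half-log series from 200 μM gave IC50; otherwise % inhibition at 1 μM.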
row,SMILES,IC50
1,"CN1CCN(CCCNCc2ccc3c(c2)c2c4c(c5c6ccccc6n6c5c2n3CC(O)C(O)C6)CNC4=O)CC1 (stereo not drawn) [Cpd 197, 3-{[3-(4-methyl-piperazin-1-yl)prop-1-yl]aminomethyl}-12,13-(2,3-dihydroxy-butan-1,4-yl)-6,7,12,13-tetrahydro-5-oxo-5H-indolo[2,3-a]pyrrolo[3,4-c]carbazole]",693 nM
2,"COCCNCc1ccc2c(c1)c1c3c(c4c5ccccc5n5c4c1n2CC(O)C(O)C5)CNC3=O (stereo not drawn) [Cpd 198, 3-[(2-methoxy-ethyl)aminomethyl]-12,13-(2,3-dihydroxy-butan-1,4-yl)-6,7,12,13-tetrahydro-5-oxo-5H-indolo[2,3-a]pyrrolo[3,4-c]carbazole]",351 nM
3,"CN(C)CCSCc1ccc2c(c1)c1c3c(c4c5ccccc5n5c4c1n2CC(O)C(O)C5)CNC3=O (stereo not drawn) [Cpd 199, 3-[(2-dimethylamino-ethyl)thiomethyl]-12,13-(2,3-dihydroxy-butan-1,4-yl)-6,7,12,13-tetrahydro-5-oxo-5H-indolo[2,3-a]pyrrolo[3,4-c]carbazole]",309 nM
4,"O=C1NCc2c1c1c3cc(/C=N/NC4=NCCN4)ccc3n3c1c1c2c2ccccc2n1CC(O)C(O)C3 (stereo not drawn) [Cpd 200, 3-[(4,5-dihydro-1H-imidazol-2-yl)hydrazomethylene]-12,13-(2,3-dihydroxy-butan-1,4-yl)-6,7,12,13-tetrahydro-5-oxo-5H-indolo[2,3-a]pyrrolo[3,4-c]carbazole]",19 nM
5,O=C1NCc2c1c1c3cc(/C=C/Cn4ccnc4)ccc3n3c1c1c2c2ccccc2n1CC(O)C(O)C3 (stereo not drawn) [Cpd 201],24 nM
6,"O=C1NCc2c1c1c3cc(Cn4ccnc4)ccc3n3c1c1c2c2ccccc2n1CC(O)C(O)C3 (stereo not drawn) [Cpd 202, 3-(imidazol-1-ylmethyl)-12,13-(2,3-dihydroxy-butan-1,4-yl)-6,7,12,13-tetrahydro-5-oxo-5H-indolo[2,3-a]pyrrolo[3,4-c]carbazole]",103 nM
7,"O=C1NCc2c1c1c3cc(OCCN4CCOCC4)ccc3n3c1c1c2c2ccccc2n1CC(O)C(O)C3 (stereo not drawn) [Cpd 203, 3-(2-morpholin-4-yl-ethoxy)-12,13-(2,3-dihydroxy-butan-1,4-yl)-6,7,12,13-tetrahydro-5-oxo-5H-indolo[2,3-a]pyrrolo[3,4-c]carbazole]",618 nM
8,"CN1CCC(Nc2ccc3c(c2)c2c4c(c5c6ccccc6n6c5c2n3CC(O)C(O)C6)CNC4=O)CC1 (stereo not drawn) [Cpd 204, 3-[(1-methyl-piperidin-4-yl)amino]-12,13-(2,3-dihydroxy-butan-1,4-yl)-6,7,12,13-tetrahydro-5-oxo-5H-indolo[2,3-a]pyrrolo[3,4-c]carbazole]",169 nM
9,"CN1CCN(CC(=O)Nc2ccc3c(c2)c2c4c(c5c6ccccc6n6c5c2n3CC(O)C(O)C6)CNC4=O)CC1 (stereo not drawn) [Cpd 205, 3-{[(4-methyl-piperazin-1-yl)methylcarbonyl]amino}-12,13-(2,3-dihydroxy-butan-1,4-yl)-6,7,12,13-tetrahydro-5-oxo-5H-indolo[2,3-a]pyrrolo[3,4-c]carbazole]",42 nM
10,O=C1NCc2c1c1c3cc(NC4=NCCN4)ccc3n3c1c1c2c2ccccc2n1CC(O)C(O)C3 (stereo not drawn) [Cpd 206],49 nM
11,"O=Cc1ccc2c(c1)c1c3c(c4c5cc(Br)ccc5n5c4c1n2CC(CO)C5)C(=O)NC3 (stereo not drawn) [Cpd 207, 3-bromo-9-formyl-12,13-(2-hydroxymethyl-propan-1,3-yl)-6,7,12,13-tetrahydro-5-oxo-5H-indolo[2,3-a]pyrrolo[3,4-c]carbazole]",13 nM
12,"O=C1NCc2c1c1c3cc(Br)ccc3n3c1c1c2c2cc(CN4CCOCC4)ccc2n1CC(CO)C3 (stereo not drawn) [Cpd 208, 3-bromo-9-(morpholin-4-ylmethyl)-12,13-(2-hydroxymethyl-propan-1,3-yl)-6,7,12,13-tetrahydro-5-oxo-5H-indolo[2,3-a]pyrrolo[3,4-c]carbazole]",3130 nM
13,"CC(C)OCc1ccc2c(c1)c1c3c(c4c5cc(Br)ccc5n5c4c1n2CC(CO)C5)C(=O)NC3 (stereo not drawn) [Cpd 209, 3-bromo-9-(isopropoxymethyl)-12,13-(2-hydroxymethyl-propan-1,3-yl)-6,7,12,13-tetrahydro-5-oxo-5H-indolo[2,3-a]pyrrolo[3,4-c]carbazole]",70 nM
14,"CC(C)OCc1ccc2c(c1)c1c3c(c4c5cc(COC(C)C)ccc5n5c4c1n2CC(CO)C5)C(=O)NC3 (stereo not drawn) [Cpd 210, 3,9-bis-(isopropoxymethyl)-12,13-(2-hydroxymethyl-propan-1,3-yl)-6,7,12,13-tetrahydro-5-oxo-5H-indolo[2,3-a]pyrrolo[3,4-c]carbazole]",1050 nM
15,"CC(C)OCc1ccc2c(c1)c1c3c(c4c5ccccc5n5c4c1n2CC(CO)C5)CNC3=O (stereo not drawn) [Cpd 211, 9-(isopropoxymethyl)-12,13-(2-hydroxymethyl-propan-1,3-yl)-6,7,12,13-tetrahydro-5-oxo-5H-indolo[2,3-a]pyrrolo[3,4-c]carbazole]",107 nM
16,"O=C1NCc2c1c1c3ccccc3n3c1c1c2c2cc(CO)ccc2n1CC(CO)C3 (stereo not drawn) [Cpd 212, 9-hydroxymethyl-12,13-(2-hydroxymethyl-propan-1,3-yl)-6,7,12,13-tetrahydro-5-oxo-5H-indolo[2,3-a]pyrrolo[3,4-c]carbazole]",3 nM
17,"CC(C)NCc1ccc2c(c1)c1c3c(c4c5ccccc5n5c4c1n2CC(CO)C5)CNC3=O (stereo not drawn) [Cpd 213, 3-(isopropylaminomethyl)-12,13-(2-hydroxymethyl-propan-1,3-yl)-6,7,12,13-tetrahydro-5-oxo-5H-indolo[2,3-a]pyrrolo[3,4-c]carbazole]",241 nM
18,"O=C1NCc2c1c1c3cc(CN4CCOCC4)ccc3n3c1c1c2c2cc(CN4CCOCC4)ccc2n1CC(CO)C3 (stereo not drawn) [Cpd 214, 3,9-bis-(morpholin-4-ylmethyl)-12,13-(2-hydroxymethyl-propan-1,3-yl)-6,7,12,13-tetrahydro-5-oxo-5H-indolo[2,3-a]pyrrolo[3,4-c]carbazole]",> 50000 nM
19,"O=C1NCc2c1c1c3cc(CO)ccc3n3c1c1c2c2cc(CO)ccc2n1CC(CO)C3 (stereo not drawn) [Cpd 215, 3,9-bis-(hydroxymethyl)-12,13-(2-hydroxymethyl-propan-1,3-yl)-6,7,12,13-tetrahydro-5-oxo-5H-indolo[2,3-a]pyrrolo[3,4-c]carbazole]",8 nM
20,"O=C1NCc2c1c1c3cc(/C=C/c4ccccn4)ccc3n3c1c1c2c2ccccc2n1CC(CO)C3 (stereo not drawn) [Cpd 216, 3-[(2E)-2-pyridin-2-yl-ethenyl]-12,13-(2-hydroxymethyl-propan-1,3-yl)-6,7,12,13-tetrahydro-5-oxo-5H-indolo[2,3-a]pyrrolo[3,4-c]carbazole]",310 nM
21,"Cc1ncsc1/C=C/c1ccc2c(c1)c1c3c(c4c5ccccc5n5c4c1n2CC(CO)C5)CNC3=O (stereo not drawn) [Cpd 217, 3-[(2E)-2-(4-methyl-thiazol-5-yl)ethenyl]-12,13-(2-hydroxymethyl-propan-1,3-yl)-6,7,12,13-tetrahydro-5-oxo-5H-indolo[2,3-a]pyrrolo[3,4-c]carbazole]",592 nM
22,"O=C(O)/C=C/c1ccc2c(c1)c1c3c(c4c5ccccc5n5c4c1n2CC(CO)C5)CNC3=O (stereo not drawn) [Cpd 218, 3-[(2E)-2-carboxy-ethenyl]-12,13-(2-hydroxymethyl-propan-1,3-yl)-6,7,12,13-tetrahydro-5-oxo-5H-indolo[2,3-a]pyrrolo[3,4-c]carbazole]",686 nM
23,"O=C1NCc2c1c1c3cc(/C=C/Cn4ccnc4)ccc3n3c1c1c2c2ccccc2n1CC(CO)C3 (stereo not drawn) [Cpd 219, 3-[(1E)-3-1H-imidazol-1-yl-prop-1-en-1-yl]-12,13-(2-hydroxymethyl-propan-1,3-yl)-6,7,12,13-tetrahydro-5-oxo-5H-indolo[2,3-a]pyrrolo[3,4-c]carbazole]",14 nM
24,"O=C1NCc2c1c1c3cc(/C=C/n4ccnc4)ccc3n3c1c1c2c2ccccc2n1CC(CO)C3 (stereo not drawn) [Cpd 220, 3-[(2E)-2-1H-imidazol-1-yl-ethenyl]-12,13-(2-hydroxymethyl-propan-1,3-yl)-6,7,12,13-tetrahydro-5-oxo-5H-indolo[2,3-a]pyrrolo[3,4-c]carbazole]",90 nM
25,"O=C1NCc2c1c1c3cc(/C=C/CNC4=NCCN4)ccc3n3c1c1c2c2ccccc2n1CC(CO)C3 (stereo not drawn) [Cpd 221, 3-{(1E)-3-[(4,5-dihydro-1H-imidazol-2-yl)amino]-prop-1-en-1-yl}-12,13-(2-hydroxymethyl-propan-1,3-yl)-6,7,12,13-tetrahydro-5-oxo-5H-indolo[2,3-a]pyrrolo[3,4-c]carbazole]",31 nM
26,"CN(C)CCNC(=O)/C=C/c1ccc2c(c1)c1c3c(c4c5ccccc5n5c4c1n2CC(CO)C5)CNC3=O (stereo not drawn) [Cpd 222, 3-{(2E)-2-[(2-dimethylamino-ethyl)carbamoyl]ethenyl}-12,13-(2-hydroxymethyl-propan-1,3-yl)-6,7,12,13-tetrahydro-5-oxo-5H-indolo[2,3-a]pyrrolo[3,4-c]carbazole]",237 nM
27,"O=C1NCc2c1c1c3cc(/C=C/Cn4ccnc4)ccc3n3c1c1c2c2cc(CO)ccc2n1CC(CO)C3 (stereo not drawn) [Cpd 223, 3-[(1E)-3-1H-imidazol-1-yl-prop-1-en-1-yl]-9-hydroxymethyl-12,13-(2-hydroxymethyl-propan-1,3-yl)-6,7,12,13-tetrahydro-5-oxo-5H-indolo[2,3-a]pyrrolo[3,4-c]carbazole]",3 nM
